Results on seven molecules are retold here after patent US9468640B2, “Piperidin-4-yl-pyridazin-3-ylamine derivatives as fast dissociating dopamine 2 receptor antagonists” (Janssen Pharmaceutica N.V., priority 2005, dated 2016).

T1 sequence (P14416 whole entry): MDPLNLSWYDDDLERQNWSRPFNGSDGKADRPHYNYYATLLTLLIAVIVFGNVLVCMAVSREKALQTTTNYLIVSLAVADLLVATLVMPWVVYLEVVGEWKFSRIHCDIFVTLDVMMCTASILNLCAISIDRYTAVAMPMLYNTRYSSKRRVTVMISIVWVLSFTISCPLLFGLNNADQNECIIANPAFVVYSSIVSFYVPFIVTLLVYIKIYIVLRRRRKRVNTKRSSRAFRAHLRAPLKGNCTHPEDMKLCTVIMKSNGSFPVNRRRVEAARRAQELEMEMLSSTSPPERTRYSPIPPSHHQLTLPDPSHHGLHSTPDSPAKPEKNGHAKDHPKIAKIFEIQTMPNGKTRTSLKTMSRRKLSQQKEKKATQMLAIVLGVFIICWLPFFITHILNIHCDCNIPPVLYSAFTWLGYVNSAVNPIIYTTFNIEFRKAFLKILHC

One data set concerns the target T1, human Dopamine D2L receptor (Homo sapiens, UniProt P14416).
T1 construct: expressed in transfected cells; host or cells: CHO cells
The data set can be described thus: In vitro binding affinity for human D2L receptor ([3H]spiperone competition). The note with it: membranes of human D2L receptor-transfected CHO cells, 30 min, 37° C. The procedure: Frozen membranes of human Dopamine D2L receptor-transfected CHO cells were thawed, briefly homogenised using an Ultra-Turrax T25 homogeniser and diluted in Tris-HCl assay buffer containing NaCl, CaCl2, MgCl2, KCl (50, 120, 2, 1, and 5 mM respectively, adjusted to pH 7.7 with HCl) to an appropriate protein concentration optimised for specific and non-specific binding. Radioligand [^3H]Spiperone (NEN, specific activity ˜70 Ci/mmol) was diluted in assay buffer at a concentration of 2 nmol/L. Prepared radioligand (50 μl), along with 50 μl of either the 10% DMSO control, Butaclamol (10^−6 mol/l final concentration), or compound of interest, was then incubated (30 min, 37° C.) with 400 μl of the prepared membrane solution. Membrane-bound activity was filtered through a Packard Filtermate harvester onto GF/B Unifilterplates and washed with ice-cold Tris-HCl buffer (50 mM; pH 7.7; 6×0.5 ml). Filters were allowed to dry before adding scintillation fluid and counting in a Topcount scintillation counter. Percentage specific bound and competition binding curves were calculated using S-Plus software (Insightful).
In turn, `CN(c1ccc(Cl)nn1)C1CCN(Cc2cccc(C(F)(F)F)c2)CC1` [Example E25, N-[1-(3-trifluoromethylbenzyl)piperidin-4-yl]-N-methyl-6-chloropyridazin-3-amine] showed an IC50 below 6.31 µM.
`CC(c1ccc(F)c(F)c1)N1CCC(Nc2ccc(C(F)(F)F)nn2)CC1` (racemic) [Example E45, (R,S)—N-[1-(3,4-difluoro-α-methylbenzyl)piperidin-4-yl]-6-(trifluoromethyl)pyridazin-3-amine] gave an IC50 below 6.31 µM.
The same measure, in the same setting: with `COc1ccc(CN2CCC(Nc3ccc(C(F)(F)F)nn3)CC2)cc1F` [Example E41, N-[1-(3-fluoro-4-methoxybenzyl)piperidin-4-yl]-6-(trifluoromethyl)pyridazin-3-amine] the figure was below 6.31 µM; with `Fc1ccc(CN2CCC(Nc3ccc(C(F)(F)F)nn3)CC2)c(F)c1` [Example E42, N-[1-(2,4-difluorobenzyl)piperidin-4-yl]-6-(trifluoromethyl)pyridazin-3-amine], below 6.31 µM; with `CC(c1ccc(F)cc1)N1CCC(Nc2ccc(C(F)(F)F)nn2)CC1` (stereo not drawn) [Example E44, N-[1-(4-fluoro-α-methylbenzyl)piperidin-4-yl]-6-(trifluoromethyl)pyridazin-3-amine], below 6.31 µM.
The same measure, in the same setting: with `Fc1ccccc1CN1CCC(Nc2ccc(C(F)(F)F)nn2)CC1` [Example E8, N-[1-(2-fluorobenzyl)piperidin-4-yl]-6-(trifluoromethyl)pyridazin-3-amine] the figure was below 6.31 µM.

Tested on in the next data set: not given
Test: not given
Details: not given
`Fc1ccc(CN2CCC(Nc3ccc(C(F)(F)F)nn3)CC2)cc1` [Example E2, N-[1-(4-fluorobenzyl)piperidin-4-yl]-6-(trifluoromethyl)pyridazin-3-amine] showed a melting point of 163.3 to 165.3 °C.
